# Reference: ChEMBL document CHEMBL3430912, “GSK Tres Cantos Anti-Kinetoplastid Screening (TCAKS) Data”
# Assays:
# Leishmania donovani [1] = assay: (§1) GSK_TCAKS: pIC50 Leishmania donovani Imaging: THP-1 Host Macrophages. Assay plates (384-well) were prepared by adding 250nL of compound to each well. For single shot assay, the final compound concentration was 5 uM. […] Automated image analysis was performed with a script developed on Acapella High Content Imaging and Analysis Software (PerkinElmer). Output: THP-1 cell count were reported for each well.; type: functional, organism-based, Homo sapiens
# Leishmania donovani [2] = assay: as §1, with “Infected” for “THP-1 Host”, “Percent of infected macrophage cells” for “THP-1 cell count”; type: functional, organism-based, Homo sapiens; conditions: THP-1
# Leishmania donovani [3] = assay: as §1, with “Amastigotes/Macrophages.” for “THP-1 Host Macrophages.”, “Average number of amastigotes per macrophage” for “THP-1”, “cell” for “cell count”; type: functional, organism-based, Homo sapiens; conditions: THP-1
# [4] = GSK_TCAKS: pIC50 HepG2 human cell line viability assay using luminiscence. […] Seeding density was checked to ensure that new mono-layers were not more than 50% confluent at the time of harvesting. Cell suspension was added to 500 mL of the same medium at a final density of 1.2 * 10^5 cells/mL. This cell suspension was dispensed (25 uL, 3000 cells per well) into 384-well clear-bottom plates using a Multidrop Combi dispenser. Prior to addition of the cell suspension, the screening compounds (250 nL) were pre-dispensed into the plates with an Echo liquid handler. Plates were incubated for 48 h at 37C, 5% CO2. After incubation, plates equilibrated at room temperature for 30 min before proceeding to develop the luminescent signal. The signal developer, CellTiter-Glo Reagent, was allowed to equilibrate at room temperature for 30 min and added to the plates (25uL per well) using a Multidrop Combi dispenser. Plates were left for 10 min at room temperature for stabilization and then read using a ViewLux.; type: toxicity, cell-based
# Trypanosoma cruzi [5] = assay: (§2) GSK_TCAKS: pIC50 Trypanosoma cruzi Imaging: Infected Cells. […] Cells were then washed once with PBS before infection. T. cruzi trypomastigotes, collected at days 5 to 8 after infection from LLC-MK2 parasite infected cultures, were allowed to swim out for 4h at 37C from a centrifuged pellet (2,500 rpm/10 min/room temperature). Trypomastigotes were then collected and counted in a CASY Cell Counter. Trypomastigotes, in supplemented DMEM, were added to H9c2 cultures in a multiplicity of infection of 1 and incubated for 18 h. Cells were washed once with PBS before incubation of the infected H9c2 monolayer with trypsin (Life-Technologies) to detach cells from the flask. Cells were counted in a CASY Cell Counter using a 150 um capillary and their density set at 5 * 10^4 cells per mL in supplemented assay DMEM. Infected H9c2 were dispensed into 384-well poly-lysine coated assay plates at 50uL per well using a Multidrop Combi dispenser. After seeding them, the plates were incubated at 37C, 5% CO2 for 72h. Cultures were then fixed and stained by addition of 50 uL of a solution containing 8% formaldehyde and 4 uM DRAQ5 DNA dye (BioStatus, UK) per well. […] Five images were collected per well for reliable statistical analysis. Automated image analysis was performed with a script developed on Acapella High Content Imaging and Analysis Software (PerkinElmer). Output: percentage of infected cells per well as a second infection marker.; type: functional, organism-based, Rattus norvegicus; conditions: H9c2, 4 h
# Trypanosoma cruzi [6] = assay: GSK_TCAKS: pIC50 Trypanosoma cruzi viability assay using beta-GAL activity. This assay was run at single shot at 5uM compound concentration per well. The biological reagents consisted of NIH-3T3 host cells and trypomastigotes parasitic cells; both cell types were set to a 3.3 * 10^5 cells/mL dilution in assay DMEM by means of a CASY cell counter device using a 60um capillary. 6 uL of the mixture were dispensed per well (about 1 * 10^3 host-cells and 1 * 10^3 parasites) with a Multidrop Combi dispenser. […] In all wells, the percentage of DMSO never exceeded 0.5%. Plates incubated for four days at 37C, 5% CO2. The substrate used for the assay fluorescence intensity (FLINT) readout was resorufin-beta-D-galactopiranoside (Sigma-Aldrich) at 5uM per well. It was diluted in PBS supplemented with the soft detergent Igepal (Fluka).; type: functional, organism-based, Mus musculus; conditions: Tulahuen, NIH3T3
# Leishmania donovani [7] = assay: GSK_TCAKS: pIC50 Leishmania donovani viability assay using fluorescence intensity. Assay plates (1536-well) were prepared by adding 30nL per well of compound. For single shot assay, the final compound concentration was 5uM. […] Briefly, eGFP LdBOB axenic amastigotes were harvested, fixed and counted in a CASY cell counter (Roche-Applied Science). A final concentration of 1.5 * 10^5 cells per well were prepared in amastigote media containing 500 U/mL penicillin/streptomycin (Invitrogen) and 6uL was dispensed to each experimental well using a Multidrop Combi dispenser (Thermo Scientific). 6uL of assay media was dispensed to control columns used as reference for 100% compound response. Following incubation for 72 h at 37C, 5% CO2, 2 uL of resazurin was added to each well at a final concentration of 0.5 mM in phosphate buffered saline (PBS) with IGEPAL (Sigma-Aldrich), 0.05% (v/v).; type: functional, organism-based
# Trypanosoma cruzi [8] = assay: as §2, with “H2C9” for “Trypanosoma cruzi”, “H9c2 Host Cardiomyocytes.” for “Infected Cells.”, “Number” for “percentage”, “H9c2 Host Cardiomyocytes nuclei to determine drug-related cytotoxicity.” for “infected cells per well as a second infection marker.”; type: functional, organism-based, Rattus norvegicus; conditions: H9c2, 4 h
# [9] = molecular target: Sterol 14-alpha demethylase (Trypanosoma cruzi (strain CL Brener), UniProt Q7Z1V1); assay: GSK_TCAKS: pIC50 CYP51 from Trypanosoma cruzi.; type: functional
# Sterol 14-alpha demethylase, sequence (Q7Z1V1 whole entry): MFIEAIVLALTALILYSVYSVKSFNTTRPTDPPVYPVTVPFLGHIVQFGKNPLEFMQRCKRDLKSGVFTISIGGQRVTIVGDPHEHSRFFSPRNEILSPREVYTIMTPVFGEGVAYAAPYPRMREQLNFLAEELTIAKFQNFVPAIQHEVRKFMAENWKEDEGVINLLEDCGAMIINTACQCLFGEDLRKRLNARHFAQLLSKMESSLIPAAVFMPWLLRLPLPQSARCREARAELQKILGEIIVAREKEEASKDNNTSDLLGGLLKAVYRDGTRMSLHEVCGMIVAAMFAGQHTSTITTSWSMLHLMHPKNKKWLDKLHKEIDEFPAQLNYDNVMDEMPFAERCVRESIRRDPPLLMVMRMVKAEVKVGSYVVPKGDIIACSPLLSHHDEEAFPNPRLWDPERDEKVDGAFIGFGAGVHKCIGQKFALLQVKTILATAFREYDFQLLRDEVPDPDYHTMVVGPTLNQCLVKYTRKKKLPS
# [10] = system: Trypanosoma brucei brucei; assay: GSK_TCAKS: pIC50 Trypanosoma brucei viability assay using luminiscence. Assay plates (1536-well) were prepared. T. brucei cultures were harvested and counted in a CASY cell counter. A parasite suspension was prepared at a final concentration of 5 * 10^4 cells/mL in complete HMI9 medium and 6uL was dispensed to all wells containing compounds using a Multidrop Combi dispenser. 6uL of HMI9 media with 0.4% DMSO were dispensed to control columns. Plates were incubated for 24 h at 37C, 5% CO2 then tempered for 10 min at room temperature. ATP content was quantified by adding 4 uL of CellTiter-Glo Reagent (Promega) according to the manufacturer's instructions. Luminescence was measured using a ViewLux.; type: functional, organism-based; conditions: Lister 427, CASY
# [11] = system: Trypanosoma brucei brucei; assay: GSK_TCAKS: pIC50 Trypanosoma brucei viability assay using fluorescence intensity. Assay plates (1536-well) were prepared by dispensing 25nL of compound solution per well using an Echo acoustic dispenser (Labcyte).; type: functional, organism-based; conditions: Lister 427, 2 h
# Trypanosoma cruzi [12] = assay: GSK_TCAKS: pIC50 Trypanosoma cruzi Imaging: Amastigotes/Cell. […] Cells were then washed once with PBS before infection. T. cruzi trypomastigotes, collected at days 5 to 8 after infection from LLC-MK2 parasite infected cultures, were allowed to swim out for 4h at 37C from a centrifuged pellet (2,500 rpm/10 min/room temperature). Trypomastigotes were then collected and counted in a CASY Cell Counter. Trypomastigotes, in supplemented DMEM, were added to H9c2 cultures in a multiplicity of infection of 1 and incubated for 18 h. Cells were washed once with PBS before incubation of the infected H9c2 monolayer with trypsin (Life-Technologies) to detach cells from the flask. Cells were counted in a CASY Cell Counter using a 150 um capillary and their density set at 5 * 10^4 cells per mL in supplemented assay DMEM. Infected H9c2 were dispensed into 384-well poly-lysine coated assay plates at 50uL per well using a Multidrop Combi dispenser. After seeding them, the plates were incubated at 37C, 5% CO2 for 72h. Cultures were then fixed and stained by addition of 50 uL of a solution containing 8% formaldehyde and 4 uM DRAQ5 DNA dye (BioStatus, UK) per well. […] Five images were collected per well for reliable statistical analysis. Automated image analysis was performed with a script developed on Acapella High Content Imaging and Analysis Software (PerkinElmer). Output: number of amastigotes per cell as infection level measurement.; type: functional, organism-based, Rattus norvegicus; conditions: H9c2, 4 h
SMILES,IC50 (Leishmania donovani [1]) [µM],IC50 (Leishmania donovani [2]) [µM],IC50 (Leishmania donovani [3]) [µM],IC50 at 48 h [4] [µM],IC50 (Trypanosoma cruzi [5]) [µM],IC50 (Trypanosoma cruzi [6]) [µM],IC50 (Leishmania donovani [7]) [µM],IC50 (Trypanosoma cruzi [8]) [µM],IC50 [9] [µM],IC50 [10] [µM],IC50 [11] [µM],IC50 (Trypanosoma cruzi [12]) [µM]
COc1cccc(NS(=O)(=O)c2ccc3ncc(C(=O)NCCC(C)C)c(O)c3c2)c1,> 50.1,> 50.1,> 50.1,31.6,31.6,> 50.1,> 50.1,12.6,6.31,0.631,0.316,15.8
CCOc1ccc(Nc2ccc(S(=O)(=O)N3CCN(C)CC3)cc2[N+](=O)[O-])cc1OCC,12.6,7.94,5.01,> 100,> 50.1,7.94,0.794,> 50.1,31.6,31.6,6.31,3.16
O=C(NCc1ccc(Cl)cc1)C1CN(C(=O)c2ccc(F)cc2)CCS1 (centres undefined),> 50.1,> 50.1,> 50.1,> 100,39.8,25.1,> 50.1,> 50.1,12.6,0.631,0.794,31.6
O=C(Nc1cccc(Cl)c1)Nc1ccc([N+](=O)[O-])cc1Cl,25.1,3.16,2,31.6,2,1.26,6.31,3.98,5.01,3.16,2.51,1.58
NCC(Cc1ccccc1)NC(=O)c1cnc(-c2c[nH]c3ncccc23)s1 (centres undefined),6.31,15.8,12.6,79.4,> 50.1,2,> 50.1,0.631,1,1,0.398,20
Cc1ccc(NC(=O)c2ccnc(N3CCCC3)c2)cc1-c1cc(C(N)=O)ccc1C,31.6,39.8,25.1,> 100,10,6.31,25.1,> 50.1,3.98,0.251,0.1,3.16
Cc1nnc(-c2nc(NCc3ccc(Cl)cc3)c3cccnc3c2O)[nH]1,6.31,0.501,0.501,15.8,0.794,0.631,2,25.1,15.8,0.794,0.631,1.26
CC(=O)Nc1ccc(-c2cnc(N)c(-c3nc4ccc(F)cc4[nH]3)c2)cc1,7.94,1,0.501,10,> 50.1,0.631,6.31,0.794,63.1,2,0.631,> 50.1
Cc1ccc(NC(=O)c2ccnc(N3CCCC3)c2)cc1-c1ccsc1C(N)=O,> 50.1,> 50.1,> 50.1,> 100,12.6,12.6,> 50.1,> 50.1,1.26,0.0631,0.0631,7.94
Cc1nc(-c2ccc3c(c2)OCO3)sc1C(=O)NCc1ccc2c(c1)OCO2,> 50.1,0.251,0.794,> 100,0.794,3.55,2,> 50.1,5.01,> 39.8,10,0.501
Cc1cc(C)n(-c2nc(NC(C)(C)C)nc(N3CCOCC3)n2)n1,> 50.1,7.94,3.98,100,10,5.01,6.31,1.26,> 100,3.98,12.6,3.16
CN1C(=O)c2ccccc2Sc2ccc(NC(=O)NCc3ccco3)cc21,> 50.1,> 50.1,25.1,> 100,12.6,10,> 50.1,25.1,31.6,0.501,0.398,6.31
CC(=O)Nc1ccc(-c2ccnc(Nc3cccc(C#N)c3)n2)cc1,10,15.8,10,> 100,6.31,6.31,39.8,12.6,25.1,0.794,0.631,3.16
O=C(NCCCn1cnc2ccccc21)c1ccc(NC(=O)c2ccco2)cc1,> 50.1,> 50.1,12.6,15.8,2,3.98,1.26,> 50.1,15.8,0.251,0.2,1.26
CCN(Cc1cccs1)C(=O)CSc1nnc(-c2ccc3c(c2)OCO3)o1,> 50.1,2,2,> 100,2.51,3.98,3.16,> 50.1,7.94,> 39.8,25.1,1.58
C=CCN(Cc1cccs1)C(=O)CSc1nnc(-c2ccc3c(c2)OCO3)o1,> 50.1,3.16,1.26,> 100,0.631,6.31,6.31,> 50.1,7.94,39.8,20,0.501
N#Cc1cnc(Nc2cccc(CCN3CCOCC3)c2)nc1Nc1ccccc1C(N)=O,0.794,1.58,1,25.1,3.16,1.26,2.51,0.0126,10,0.251,0.0631,2
